Measurements from ChEMBL document CHEMBL3351235, “β-amino-alcohol tethered 4-aminoquinoline-isatin conjugates: synthesis and antimalarial evaluation” (Eur J Med Chem, 2014).
pIC50: −log10 of the molar value.

Key:
[1] = tested on: Plasmodium falciparum; assay: Antimalarial activity against chloroquine-resistant ring stage Plasmodium falciparum W2 assessed as parasitemia after 48 hrs by flow cytometry; assay type: functional, organism-based; conditions: W2, 48 h
[2] = Cytotoxicity against human HCT116 cells at 0.2 uM after 48 hrs by MTT assay relative to untreated control; conditions: hct-116, 48 h
[3] = Cytotoxicity against human HCT116 cells at 2 uM after 48 hrs by MTT assay relative to untreated control; conditions: hct-116, 48 h
[4] = Cytotoxicity against human HCT116 cells at 20 uM after 48 hrs by MTT assay relative to untreated control; conditions: hct-116, 48 h

Row | SMILES | pIC50 [1] | INH [2] [%] | INH [3] [%] | INH [4] [%]
1 | O=C1C(=O)N(CC(CO)NCCCCCCNc2ccnc3cc(Cl)ccc23)c2ccc(Cl)cc21 (centres undefined) | 7.30 | – | – | –
2 | Cc1ccc2c(c1)C(=O)C(=O)N2CC(CO)NCCCNc1ccnc2cc(Cl)ccc12 (centres undefined) | 6.52 | – | – | –
3 | O=C1C(=O)N(CC(CO)NCCCCCCNc2ccnc3cc(Cl)ccc23)c2ccc(F)cc21 (centres undefined) | 7.22 | – | – | –
4 | O=C1C(=O)N(CC(CO)NCCCCNc2ccnc3cc(Cl)ccc23)c2ccc(Cl)cc21 (centres undefined) | 7.00 | – | – | –
5 | O=C1C(=O)N(CC(CO)N2CCN(c3ccnc4cc(Cl)ccc34)CC2)c2ccccc21 (centres undefined) | 6.67 | – | – | –
6 | O=C1C(=O)N(CC(CO)NCCCNc2ccnc3cc(Cl)ccc23)c2ccc(F)cc21 (centres undefined) | 7.14 | -2 | 12 | 66
7 | O=C1C(=O)N(CC(CO)N2CCN(c3ccnc4cc(Cl)ccc34)CC2)c2ccc(Cl)cc21 (centres undefined) | 5.71 | – | – | –
8 | C[C@@H]1CC[C@H]2[C@@H](C)C(=O)O[C@@H]3O[C@@]4(C)CC[C@@H]1[C@]32OO4 [ARTEMISININ] | 8.36 | – | – | –
9 | COc1cccc2c1C(=O)c1c(O)c3c(c(O)c1C2=O)C[C@@](O)(C(=O)CO)C[C@@H]3O[C@H]1C[C@H](N)[C@H](O)[C@H](C)O1 [DOXORUBICIN] | – | 84 | 79 | 79
10 | O=C1C(=O)N(CC(CO)NCCNc2ccnc3cc(Cl)ccc23)c2ccc(Cl)cc21 (centres undefined) | 7.93 | 0 | -11 | 88
11 | O=C1C(=O)N(CC(CO)NCCCCNc2ccnc3cc(Cl)ccc23)c2ccc(F)cc21 (centres undefined) | 7.34 | -1 | 0 | 83
12 | O=C1C(=O)N(CC(CO)NCCNc2ccnc3cc(Cl)ccc23)c2ccccc21 (centres undefined) | 7.60 | 0 | 2 | 91
13 | O=C1C(=O)N(CC(CO)NCCNc2ccnc3cc(Cl)ccc23)c2ccc(F)cc21 (centres undefined) | 6.31 | – | – | –
14 | O=C1C(=O)N(CC(CO)NCCCNc2ccnc3cc(Cl)ccc23)c2ccc(Cl)cc21 (centres undefined) | 7.87 | 0 | 2 | 46
15 | Cc1ccc2c(c1)C(=O)C(=O)N2CC(CO)N1CCN(c2ccnc3cc(Cl)ccc23)CC1 (centres undefined) | 5.91 | – | – | –
16 | O=C1C(=O)N(CC(CO)NCCCCCCNc2ccnc3cc(Cl)ccc23)c2ccccc21 (centres undefined) | 7.20 | – | – | –
17 | O=C1C(=O)N(CC(CO)N2CCN(c3ccnc4cc(Cl)ccc34)CC2)c2ccc(F)cc21 (centres undefined) | 5.73 | – | – | –
18 | O=C1C(=O)N(CC(CO)NCCCCNc2ccnc3cc(Cl)ccc23)c2ccccc21 (centres undefined) | 7.31 | 0 | -5 | 37
19 | Cc1ccc2c(c1)C(=O)C(=O)N2CC(CO)NCCCCNc1ccnc2cc(Cl)ccc12 (centres undefined) | 7.24 | – | – | –
20 | O=C1C(=O)N(CC(CO)NCCCNc2ccnc3cc(Cl)ccc23)c2ccccc21 (centres undefined) | 7.12 | 2 | -12 | 85
21 | Cc1ccc2c(c1)C(=O)C(=O)N2CC(CO)NCCCCCCNc1ccnc2cc(Cl)ccc12 (centres undefined) | 7.25 | – | – | –
